System: 521955-158-R2-J5-PDC complex spheroid viability
Experiment: Anticancer human tumor 521955-158-R2-J5-PDC patient-derived pancreatic carcinoma cell line growth inhibition
Details: for IC50: curve of first compound; for viability, T/C: stronger effect = lower value; active = viability on the fitted dose curve at most 10% of control; inactive = the rest
Source text: Multicellular complex tumor spheroid response to LSD1 Inhibitor Iadademstat in combination with a variety of drugs and investigational agents in selected tumor cell lines
The current study was undertaken to assess response to LSD1 inhibitors in combination with standard-of-care drugs and investigational agents in solid tumor complex spheroid models as well as in the K-562 leukemia. Complex spheroids include a stromal component modeled by human endothelial cells (HUVEC) and fibroblasts modeled by human mesenchymal stem cells (MSCs). The concentration ranges selected for each drug and investigational agent were based upon clinically achievable concentrations if the clinical Cmax of the agent was known.
Compounds. The drugs and investigational agents used in this study are listed on Table 1. All of the agents used, including staurosporine (NSC755774) and gemcitabine (NSC613327), were obtained from the Developmental Therapeutics Program, NCI. FDA-approved anticancer drugs are available from the NCI at http://dtp.nci.nih.gov/branches/dscb/oncology_drugset_explanation.html. Drugs and investigational agents were >95% pure by proton nuclear magnetic resonance (NMR) and liquid chromatography/mass spectrometry (LC/MS). Stock solutions were prepared at 400x in DMSO, stored at -70 degrees C, and diluted in fresh medium prior to their use. The final concentration of DMSO in cell culture wells never exceeded 0.25% (v/v). The FDA-approved anticancer drug set is available from the Developmental Therapeutics Program at https://dtp.cancer.gov/organization/dscb/obtaining/available_plates.htm. All drugs and investigational agents were tested over a range starting from a high concentration at or near the clinical Cmax and decreasing in half-log increments. If the clinical Cmax for an agent had not been determined, the highest concentration tested was 10 microM.
Cell Lines. The patient-derived cancer cell (PDC) lines: 292921-168-R-J2-PDC, K24384-001-R-PDC, and 521955-158-R2-J5-PDC pancreatic carcinomas, 556581-035-R-J1 ovarian carcinoma, 324938-238-R-J1-PDC, 855422-203-R-J1-PDC and 883617-216-R-J1-PDC urothelial bladder carcinomas, 743489-274-T-PDC renal cell carcinoma, 138582-R-J1 Merkel cell tumor, K60290-347-R-J1 and K57222-313-R-J1-PDC glioblastomas, 653999-131-R-J2-PDC, LG0703-F948-PDC, and 349418-098-R-PDC non-small cell lung carcinomas, 885512-296-R-J2-PDC, 171881-019-R-J1-PDC breast carcinomas and 186277-243-T-J2-PDC and 233499-124-R-J2-PDC colon carcinomas were obtained from the NCI Patient-Derived Models Repository (PDMR, https://pdmr.cancer.gov). The established cell lines NCI/ADR-RES (RRID:CVCL_14520 and OVCAR-5 (RRID:CVCL_1628) ovarian carcinomas, 786-O (RRID:CVCL_1051) and A498 (RRID:CVCL_A498) renal cell carcinoma, NCI-H211 (ATCC, cat. CRL-5824; RRID:CVCL_1529), NCI-H196 (ATCC, cat. CRL-5823, RRID:CVCL_1509), SW 1271 (ATCC, cat. CRL-2177, RRID:CVCL_1716) and NCI-H1876 (ATCC, cat. CRL-5902, RRID:CVCL_1503) small cell lung carcinomas, MDA-MB-231 (RRID:CVCL_0062) and MDA-MB-468 (RRID:CVCL_0419)breast carcinomas (10-12). Pooled donor human umbilical vein endothelial cells (HUVEC, Lonza, cat. CC-2519) and human mesenchymal stem cells (hMSC, Lonza, cat. PT-2501) were purchased from Lonza (Walkersville, MD).
Cell Culture. All cells were maintained in an incubator at 37 degrees C and 5% CO2 with 95% humidity. The PDC lines were cultured according to standard operating procedures established by the NCI PDMR (https://pdmr.cancer.gov). Briefly all PDCs were thawed and cultured in Matrigel-coated flasks prepared with a working solution of 1X Ham's F-12 nutrient mix, without supplementation (Invitrogen, Waltham, MA, cat. 11765054), 100 U/mL penicillin-streptomycin (Invitrogen, cat. 15140122), and 2.5% Matrigel (Corning Inc., Corning, NY, cat. 354248) for the first three passages. […]

[1] = second compound 0.1 µM, first compound 0.00949 µM
[2] = second compound 0.1 µM, first compound 0.03 µM
[3] = second compound 0.1 µM, first compound 0.0949 µM
[4] = second compound 0.1 µM, first compound 0.3 µM
[5] = second compound 0.1 µM, first compound 0.949 µM
[6] = second compound 0.1 µM, first compound 3 µM
[7] = second compound 0.316 µM, first compound 0.00949 µM
[8] = second compound 0.316 µM, first compound 0.03 µM
[9] = second compound 0.316 µM, first compound 0.0949 µM
[10] = second compound 0.316 µM, first compound 0.3 µM
[11] = second compound 0.316 µM, first compound 0.949 µM
[12] = second compound 0.316 µM, first compound 3 µM
[13] = second compound 1 µM, first compound 0.00949 µM
[14] = second compound 1 µM, first compound 0.03 µM
[15] = second compound 1 µM, first compound 0.0949 µM
[16] = second compound 1 µM, first compound 0.3 µM
[17] = second compound 1 µM, first compound 0.949 µM
[18] = second compound 1 µM, first compound 3 µM
[19] = second compound 3.16 µM, first compound 0.00949 µM
[20] = second compound 3.16 µM, first compound 0.03 µM
[21] = second compound 3.16 µM, first compound 0.0949 µM
[22] = second compound 3.16 µM, first compound 0.3 µM
[23] = second compound 3.16 µM, first compound 0.949 µM
[24] = second compound 3.16 µM, first compound 3 µM
[25] = second compound 10 µM, first compound 0.00949 µM
[26] = second compound 10 µM, first compound 0.03 µM
[27] = second compound 10 µM, first compound 0.0949 µM
[28] = second compound 10 µM, first compound 0.3 µM
[29] = second compound 10 µM, first compound 0.949 µM
[30] = second compound 10 µM, first compound 3 µM
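Also: spheroids exposed to agents for seven days.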
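For viability, T/C in this document: percent of DMSO vehicle control luminescence viability.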

CCN(c1cc(-c2ccc(CN3CCOCC3)cc2)cc(C(=O)NCc2c(C)cc(C)[nH]c2=O)c1C)C1CCOCC1 + NC1CC1c1ccc(-c2cccc(O)c2)cc1
inactive: viability, T/C [1] 98.8% | viability, T/C [2] 96.3% | viability, T/C [3] 87.4% | viability, T/C [4] 82.1% | viability, T/C [5] 86.8% | viability, T/C [6] 72.3% | viability, T/C [7] 89% | viability, T/C [8] 85.2% | viability, T/C [9] 82.4% | viability, T/C [10] 82.2% | viability, T/C [11] 82.2% | viability, T/C [12] 77.5% | viability, T/C [13] 75.5% | viability, T/C [14] 88.3% | viability, T/C [15] 88.4% | viability, T/C [16] 87.1% | viability, T/C [17] 79.8% | viability, T/C [18] 85.7% | viability, T/C [19] 91.2% | viability, T/C [20] 91.6% | viability, T/C [21] 92.4% | viability, T/C [22] 83.9% | viability, T/C [23] 70.9% | viability, T/C [24] 77.7% | viability, T/C [25] 83.4% | viability, T/C [26] 110% | viability, T/C [27] 92.2% | viability, T/C [28] 82.7% | viability, T/C [29] 80.3% | viability, T/C [30] 76.7%
> 3000 nM: IC50 (second compound 0.1 µM) | IC50 (second compound 0.316 µM) | IC50 (second compound 1 µM) | IC50 (second compound 3.16 µM) | IC50 (second compound 10 µM)

COc1cc(C2c3cc4c(cc3C(OC3OC5COC(C)OC5C(O)C3O)C3COC(=O)C23)OCO4)cc(OC)c1O (stereo not given) + NC1CC1c1ccc(-c2cccc(O)c2)cc1
249 nM: IC50 (second compound 1 µM)
198 nM: IC50 (second compound 0.1 µM)
227 nM: IC50 (second compound 0.316 µM)
inactive: viability, T/C [1] 86.6% | viability, T/C [2] 94.8% | viability, T/C [3] 66.2% | viability, T/C [4] 39.9% | viability, T/C [5] 23% | viability, T/C [6] 15.3% | viability, T/C [7] 87.3% | viability, T/C [8] 83.6% | viability, T/C [9] 66.3% | viability, T/C [10] 44.6% | viability, T/C [11] 27.8% | viability, T/C [12] 19.2% | viability, T/C [13] 84.2% | viability, T/C [14] 87.2% | viability, T/C [15] 64% | viability, T/C [16] 47.1% | viability, T/C [17] 30.9% | viability, T/C [18] 20.2% | viability, T/C [19] 89.4% | viability, T/C [20] 88.5% | viability, T/C [21] 53.8% | viability, T/C [22] 44.4% | viability, T/C [23] 30.3% | viability, T/C [24] 19.8% | viability, T/C [25] 95.9% | viability, T/C [26] 83.6% | viability, T/C [27] 67.5% | viability, T/C [28] 49.8% | viability, T/C [29] 30.6% | viability, T/C [30] 27%
265 nM: IC50 (second compound 10 µM)
181 nM: IC50 (second compound 3.16 µM)

CC[C@@]1(O)C(=O)OCc2c1cc1n(c2=O)Cc2cc3c(CN(C)C)c(O)ccc3nc2-1 + NC1CC1c1ccc(-c2cccc(O)c2)cc1
6.19 nM: IC50 (second compound 3.16 µM)
6.25 nM: IC50 (second compound 10 µM)
6.63 nM: IC50 (second compound 0.316 µM)
6.03 nM: IC50 (second compound 0.1 µM)
inactive: viability, T/C (second compound 0.1 µM, first compound 0.000316 µM) 97.3% | viability, T/C (second compound 0.1 µM, first compound 0.001 µM) 106% | viability, T/C (second compound 0.1 µM, first compound 0.00316 µM) 77.3% | viability, T/C (second compound 0.1 µM, first compound 0.01 µM) 28.3% | viability, T/C (second compound 0.1 µM, first compound 0.0316 µM) 15.6% | viability, T/C (second compound 0.1 µM, first compound 0.1 µM) 11.7% | viability, T/C (second compound 0.316 µM, first compound 0.000316 µM) 94.8% | viability, T/C (second compound 0.316 µM, first compound 0.001 µM) 94.9% | viability, T/C (second compound 0.316 µM, first compound 0.00316 µM) 80.5% | viability, T/C (second compound 0.316 µM, first compound 0.01 µM) 33.1% | viability, T/C (second compound 0.316 µM, first compound 0.0316 µM) 14.6% | viability, T/C (second compound 0.316 µM, first compound 0.1 µM) 13.1% | viability, T/C (second compound 1 µM, first compound 0.000316 µM) 80.2% | viability, T/C (second compound 1 µM, first compound 0.001 µM) 93.3% | viability, T/C (second compound 1 µM, first compound 0.00316 µM) 78.2% | viability, T/C (second compound 1 µM, first compound 0.01 µM) 29.1% | viability, T/C (second compound 1 µM, first compound 0.0316 µM) 16.4% | viability, T/C (second compound 1 µM, first compound 0.1 µM) 12.7% | viability, T/C (second compound 3.16 µM, first compound 0.000316 µM) 83% | viability, T/C (second compound 3.16 µM, first compound 0.001 µM) 86.8% | viability, T/C (second compound 3.16 µM, first compound 0.00316 µM) 71.9% | viability, T/C (second compound 3.16 µM, first compound 0.01 µM) 33.8% | viability, T/C (second compound 3.16 µM, first compound 0.0316 µM) 18.5% | viability, T/C (second compound 3.16 µM, first compound 0.1 µM) 12.2% | viability, T/C (second compound 10 µM, first compound 0.000316 µM) 103% | viability, T/C (second compound 10 µM, first compound 0.001 µM) 92.3% | viability, T/C (second compound 10 µM, first compound 0.00316 µM) 68.7% | viability, T/C (second compound 10 µM, first compound 0.01 µM) 37.7% | viability, T/C (second compound 10 µM, first compound 0.0316 µM) 21.1% | viability, T/C (second compound 10 µM, first compound 0.1 µM) 19.7%
6.15 nM: IC50 (second compound 1 µM)

From PubChem BioAssay AID1918937 (Molecular Pharmacology Branch, DTP, NCI, 2023)
